Reference: patent US10875858B2, “Process for preparing halogenated pyridine derivatives” (Bayer CropScience Aktiengesellschaft, priority 2016, dated 2020)

assay: log P by HPLC-MS; format: physicochemical

Row | chromatographic logP | Compound
1 | 0.95 | Cn1cnc2cc(C(F)(F)F)nnc21 [Example 5, 7-methyl-3-(trifluoromethyl)-7H-imidazo[4,5-c]pyridazine]
2 | 2.09 | COC(=O)c1ccc(F)c(-c2nc3cc(C(F)(F)F)nnc3n2C)n1 [Example 7, methyl 5-fluoro-6-[7-methyl-3-(trifluoromethyl)-7H-imidazo[4,5-c]pyridazin-6-yl]pyridine-2-carboxylate]
3 | 2.58 | Cn1c(-c2nc(Br)ccc2F)nc2cc(C(F)(F)F)nnc21 [Example 8, 6-(6-bromo-3-fluoropyridin-2-yl)-7-methyl-3-(trifluoromethyl)-7H-imidazo[4,5-c]pyridazine]
4 | 2.46 | Cn1c(-c2nc(Cl)ccc2F)nc2cc(C(F)(F)F)nnc21 [Example 6, 6-(6-chloro-3-fluoropyridin-2-yl)-7-methyl-3-(trifluoromethyl)-7H-imidazo[4,5-c]pyridazine]

The next lines start with the molecule.

Row | Compound | chromatographic logP
5 | COC(=O)c1ccc(F)c(-c2nc3cc(C(F)(F)F)ncc3n2C)n1 [Example 3, methyl 5-fluoro-6-[3-methyl-6-(trifluoromethyl)-3H-imidazo[4,5-c]pyridin-2-yl]pyridine-2-carboxylate] | 2.03
6 | Cn1c(-c2nc(Br)ccc2F)nc2cc(C(F)(F)F)ncc21 [Example 4, 2-(6-bromo-3-fluoropyridin-2-yl)-3-methyl-6-(trifluoromethyl)-3H-imidazo[4,5-c]pyridine] | 2.51
7 | Cn1c(-c2nc(Cl)ccc2F)nc2cc(C(F)(F)F)ncc21 [Example 2, 2-(6-chloro-3-fluoropyridin-2-yl)-3-methyl-6-(trifluoromethyl)-3H-imidazo[4,5-c]pyridine] | 2.38
